Source: patent publication US12129261B2, “Crystalline forms of a MCL-1 inhibitor, a process for their preparation and pharmaceutical compositions containing them” (LES LABORATOIRES SERVIER, priority 2018, dated 2024)

Experiments:
Assay type in all cases: physicochemical
[1] = Solubility in water; settings: pH 7.5, water
[2] = Water content by coulometric titration
Method: The water content of crystalline Form M of Compound A obtained according to any one of the processes of Examples 1 to 6 was determined by coulometric titration using a Metrohm Coulometer composed of a 774 oven sample processor, a 774 SC controller, 831 KF coulometer and a 846 Dosing interface with Tiamo 1.2 software About 10 mg of accurately weighed micronized drug substance were introduced in vials heated for 10 minutes at 140° C. The water content of the powder was also determined by the coulometric method.

[3] = Hygroscopicity by dynamic vapor sorption (DVS)
Method: The hygroscopicity of crystalline Form M of Compound A obtained according to any one of the processes of Examples 1 to 6 was assessed using the dynamic vapor sorption (DVS) technique. 5 to 10 mg of the drug substance test sample were accurately weighed into a DVS sample pan working at 25° C. under controlled humidity. The mass of the sample was recorded at 50% RH (relative humidity) until reaching a stable value. Thereafter the mass variation was recorded between 50% RH and 90% RH at a rate of 10% per hour. Mass variations were also recorded between 90% RH and 0% RH and from 0% RH back to 50% RH. The relative humidity was maintained constant when it reached either 0 or 90% RH until the mass variation was less than 0.002% per minute within a limit of lime of 15 hours. An increase in sample mass of approximately 0.4% was recorded by DVS analysis when a sample was exposed to relative humidities from 50% to 90% at 25° C.

[4] = Stability studies of crystalline Form M (storage, XRPD and post-storage HPLC); settings: for stability towards temperature and humidity: 6-month storage period under various conditions
Method: For all storage conditions and storage periods, 20 mg of crystalline Form M of Compound A obtained according to any one of the processes of Examples 1 to 6 were introduced in a 30-mL vial for post-storage HPLC analysis (packaging: PVO=Opened glass container; VRAC PA=Double polyethylene bag).

[5] = Stability studies of crystalline Form A (storage, post-storage HPLC); settings: for (i) Polymorphic stability / (ii) chemical stability, drug substance content determined by LC: polyethylene bag in sealed quadruple laminated foil bag
Source text: For all storage conditions and storage periods, 1.2 g of crystalline Form A of Compound A obtained according to the process of Example 15 were introduced in a specific packaging for post-storage HPLC analysis.

[6] = 25° C. 60% RH, VRAC PA, 12 months
[7] = 30° C. 65% RH, VRAC PA, 12 months
[8] = 40° C. 75% RH, VRAC PA, 3 months
[9] = 40° C. 75% RH, VRAC PA, 6 months
[10] = 25° C./60% RH, 24 months of storage
[11] = 30° C./75% RH, 1 month of storage
[12] = 40° C./75% RH, 6 months of storage
[13] = 50° C./75% RH, 1 month of storage

COc1ccccc1-c1nccc(COc2ccccc2CC(Oc2ncnc3sc(-c4ccc(F)cc4)c(-c4ccc(OCCN5CCN(C)CC5)c(Cl)c4C)c23)C(=O)O)n1 [Compound A, (2R)-2-{[(5Sa)-5-{3-chloro-2-methyl-4-[2-(4-methylpiperazin-1-yl)ethoxy]phenyl}-6-(4-fluorophenyl)thieno[2,3-d]pyrimidin-4-yl]oxy}-3-(2-{[2-(2-methoxyphenyl)pyrimidin-4-yl]methoxy}phenyl)propanoic acid]
solubility [1]: < 1 µg/mL

COc1ccccc1-c1nccc(COc2ccccc2CC(Oc2ncnc3sc(-c4ccc(F)cc4)c(-c4ccc(OCCN5CCN(C)CC5)c(Cl)c4C)c23)C(=O)O)n1 (centres unmarked) [Form MH, 2-{[5-{3-Chloro-2-methyl-4-[2-(4-methylpiperazin-1-yl)ethoxy]phenyl}-6-(4-fluorophenyl)thieno[2,3-d]pyrimidin-4-yl]oxy}-3-(2-{[2-(2-methoxyphenyl)pyrimidin-4-yl]methoxy}phenyl)propanoic acid]
water content ([2]; coulometric method, powder after maturation in water): 29.3%

COc1ccccc1-c1nccc(COc2ccccc2CC(Oc2ncnc3sc(-c4ccc(F)cc4)c(-c4ccc(OCCN5CCN(C)CC5)c(Cl)c4C)c23)C(=O)O)n1 (centres unmarked) [crystalline Form M of Compound A, 2-{[5-{3-chloro-2-methyl-4-[2-(4-methylpiperazin-1-yl)ethoxy]phenyl}-6-(4-fluorophenyl)thieno[2,3-d]pyrimidin-4-yl]oxy}-3-(2-{[2-(2-methoxyphenyl)pyrimidin-4-yl]methoxy}phenyl)propanoic acid]
hygroscopicity according to the European Pharmacopoeia [3]: slightly hygroscopic | change to the crystalline form in X-ray powder diffractogram after water sorption/desorption/sorption cycle ([3]; DVS cycle 50-90-0-50% RH): no change | increase in sample mass (DVS) ([3]; between 0% to 50% RH, 25° C.): approximately 0.1% | decrease in sample mass (DVS) ([3]; between 90% to 0% RH, 25° C.): approximately 0.5% | increase in sample mass (DVS) ([3]; relative humidities from 50% to 90% at 25° C.): approximately 0.4% | stability towards temperature and humidity [4]: very stable | stability towards temperature and humidity ([4]; listed as Crystalline Form M of Compound A): remains stable | stability on storage ([4]; 12-month storage period under 25° C./60% RH or 30° C./65% RH): remains stable | (ii) chemical stability, drug substance content determined by LC ([4]; 25° C. 60% RH, VRAC PA, 3 months): (ii) 100.0% m/m | (ii) chemical stability, drug substance content determined by LC ([4]; 25° C. 60% RH, VRAC PA, 6 months): (ii) 99.7% m/m | (i) Polymorphic stability [4, 6]: (i) Form M | (ii) chemical stability, drug substance content determined by LC [4, 6]: (ii) 98.9% m/m | (i) Polymorphic stability ([4]; 25° C. 90% RH, PVO, 3 months): (i) Form M | (ii) chemical stability, drug substance content determined by LC ([4]; 25° C. 90% RH, PVO, 3 months): (ii) 99.7% m/m | (i) Polymorphic stability ([4]; 25° C. 90% RH, PVO, 6 weeks): (i) Form M | (ii) chemical stability, drug substance content determined by LC ([4]; 25° C. 90% RH, PVO, 6 weeks): (ii) 100.0% m/m | (ii) chemical stability, drug substance content determined by LC ([4]; 30° C. 65% RH, VRAC PA, 3 months): (ii) 99.6% m/m | (ii) chemical stability, drug substance content determined by LC ([4]; 30° C. 65% RH, VRAC PA, 6 months): (ii) 100.0% m/m | (i) Polymorphic stability [4, 7]: (i) Form M | (ii) chemical stability, drug substance content determined by LC [4, 7]: (ii) 98.8% m/m | (i) Polymorphic stability [4, 8]: (i) Form M | (ii) chemical stability, drug substance content determined by LC [4, 8]: (ii) 99.9% m/m | (i) Polymorphic stability [4, 9]: (i) Form M | (ii) chemical stability, drug substance content determined by LC [4, 9]: (ii) 100.0% m/m | (i) Polymorphic stability ([4]; 50° C. 75% RH, PVO, 3 months): (i) Form M | (ii) chemical stability, drug substance content determined by LC ([4]; 50° C. 75% RH, PVO, 3 months): (ii) 100.1% m/m | (i) Polymorphic stability ([4]; 50° C. 75% RH, PVO, 6 weeks): (i) Form M | (ii) chemical stability, drug substance content determined by LC ([4]; 50° C. 75% RH, PVO, 6 weeks): (ii) 100.2% m/m | water content ([2]; vials heated for 10 minutes at 140° C.): 0.1 % in weight

COc1ccccc1-c1nccc(COc2ccccc2CC(Oc2ncnc3sc(-c4ccc(F)cc4)c(-c4ccc(OCCN5CCN(C)CC5)c(Cl)c4C)c23)C(=O)O)n1 (centres unmarked) [crystalline Form A of Compound A, 2-{[5-{3-Chloro-2-methyl-4-[2-(4-methylpiperazin-1-yl)ethoxy]phenyl}-6-(4-fluorophenyl)thieno[2,3-d]pyrimidin-4-yl]oxy}-3-(2-{[2-(2-methoxyphenyl)pyrimidin-4-yl]methoxy}phenyl)propanoic acid]
stability on storage ([5]; 24-month storage period under 25° C./60% RH): remains stable | (i) Polymorphic stability [5, 10]: (i) Form A | (ii) chemical stability, drug substance content determined by LC [5, 10]: (ii) 98.8% after % m/m | (i) Polymorphic stability [5, 11]: (i) Form A | (ii) chemical stability, drug substance content determined by LC [5, 11]: (ii) 99.3% after % m/m | (i) Polymorphic stability [5, 12]: (i) Form A | (ii) chemical stability, drug substance content determined by LC [5, 12]: (ii) 99.5% after % m/m | (i) Polymorphic stability [5, 13]: (i) Form A | (ii) chemical stability, drug substance content determined by LC [5, 13]: (ii) 99.3% after % m/m | stability towards temperature and humidity ([5]; several months storage period under more severe conditions): still remains stable
